Numbered stars: 1 amine (or outer) side, 2 acyl side, 3 side chain; on linkers, the order of the positions; unused ones are H or OH. Bridge positions count the residues as written; N and C are the ends. Square brackets hold non-standard residues; d marks the D form. Peptide text beside a SMILES is read from it. CO = O=C([*:1])[*:2]; Nlys = NCCCCNCC(=O)O
How the values were obtained:
[1] = system: MyD88-dependent signaling; experiment: Library screen: TNFα production by U937 macrophage cells stimulated with PAM3Csk; type: cell-based, human; conditions: PAM3Csk overnight, peptide concentration estimated 2-4 μM
Method: FIG. 4. Screening results of the peptide library of 16 compounds. Human macrophage U937 cells were stimulated with PAM3csk overnight in the absence or presence of each of the cyclic peptides. Human TNFα levels in the supernatants were determined by ELISA. […].
The backbone cyclic library of 16 compounds synthesized in Example 3 was screened for inhibition of MyD88-dependent signaling through innate immune receptors employing the human macrophage cell line U937. […] The concentration of the cyclic peptides in the library was estimated to be 2-4 μM.

[2] = system: NFκB p65 nuclear translocation; experiment: NFκB p65 nuclear translocation in HeLa cells stimulated with TNFα or IL-1β; type: cell-based
Method: FIG. 6. HeLa assay showing specificity of MyD88 inhibition. HeLa cells were stimulated with recombinant TNFα or IL-1β and NFkB localization was determined with anti-p65 conjugated to rhodamine. The percent of cells with nuclear localization was determined and is shown in the bar graphs on the right. 6A: Top row, HeLa cells transduced with control shRNA. Second row, shRNA knock-down of MyD88. 6B: Top row, HeLa cells treated with MyD88 inhibitor linear peptide. Bottom row, HeLa cells treated with scrambled control version of the MyD88 inhibitor linear peptide (SEQ ID NO: 5).
FIG. 7. HeLa assay showing specificity of MyD88 inhibition by 4×4MyDI. HeLa cells were stimulated with recombinant TNFα or IL-1b and NFkB localization was determined with anti-p65 conjugated to rhodamine. The percent of cells with nuclear localization was determined, and is shown in the bar graphs on the right. Top row, HeLa cells with no pre-treatment. Second row, HeLa cells pre-treated for 30 min with the backbone cyclic 4×4MyDI compound.
Lead compounds were further tested in vitro to confirm the specificity of the inhibition. A fluorescence-based in vitro activity assay that determines the degree of activation of the transcription factor NFκB was established. In this assay, cells are treated with either TNFα or IL-1b, both inflammatory cytokines that activate NFκB. Upon activation, the p65 unit of the NFκB transcription factor re-locates from the cytoplasm to the nucleus. Using fluorescently-tagged antibodies to p65, the cytoplasmic vs. nuclear localization of the factor is determined. Importantly, since the signaling of IL-1b, but not TNFα, is dependent on MyD88, this assay can establish the specificity of the inhibition achieved using the lead compounds.
Cells were activated with either IL-1β (the signaling of the IL-1 receptor is dependent on MyD88), or with TNFα (signaling of its receptor is independent of MyD88). The activation was measured by the translocation of NFκB from the cytoplasm to the nucleus. As a positive control, a stable MyD88 knock-down cell line was established using lentiviral encoded shRNA.
Using the same system, when cells were treated with the backbone cyclic peptide 4×4MyDI, activation by IL-1β was blocked, however when treated with TNFα the activation was not inhibited.

[3] = system: T cells responding to the self-antigen MOG35-55; experiment: Cytokine response of draining lymph node cells of treated EAE mice to MOG35-55; type: in vivo; conditions: 4 mg/Kg three times per week until day 11; ex vivo restimulation
Method: FIGS. 16A and 16B. inhibition of IFNγ and IL-17 secretion in 4×4MyDI treated mice. C57BL/6 mice were immunized with MOG35-55/CFA and administered pertussis toxin on day zero and after 48 h. Groups of mice were treated with 4×4MyDI at 4 mg/kg from day zero, three times a week, and animals were sacrificed on day 11 after immunization. Control mice were treated with an equal volume of PBS using the same schedule of administration. Single cell suspensions from draining lymph nodes were stimulated with different concentrations of MOG35-55 peptide (SEQ ID NO: 4) for three days and supernatants were collected for analysis of cytokines by ELISA.
Of note, IFNγ and IL-17 are considered pro-inflammatory cytokines that are highly detrimental in the autoimmune process.

[4] = Metabolic stability in plasma (quantitative HPLC); type: in vitro ADME, human
Method: (§1) FIGS. 17A and 17B. 4×4MyDI is metabolically stable in comparison to the linear MyDI peptide. 4×4MyDI vs. linear MyDI heptapeptide were incubated independently in either human plasma […] or human plasma supplemented with Brush Border Membrane Vesicles (BBMV, 18B). At various time points the solution was sampled and the amount of remaining compound was determined by quantitative HPLC.
(§2) Peptide backbone cyclization confers metabolic stability on peptides that are inherently susceptible to degradation by proteases. […] The stability of the compounds was then tested in plasma enriched with Brush Border Membrane Vesicles (BBMV). This system models the degradative conditions of the intestine.

[5] = Metabolic stability in plasma with Brush Border Membrane Vesicles (BBMV); type: in vitro ADME; conditions: human; over two hours; read-out: decrease of amount in plasma enriched with BBMV
Method: as §1, §2

[6] = system: OCI-LY3 (MyD88 L265P) cells; experiment: Proliferation of lymphoma cells (Promega CellTiter viability assay); type: cell-based, human; conditions: 48 h; compared with OCI-LY19 (MyD88 WT)
Method: FIGS. 18A and 18B. 4×4MyDI and Myr-4×4MyDI block proliferation of Ly3 lymphoma cells that carry the L265P oncogenic mutation in MyD88. Cell lines OCI-LY3 (MyD88^L265P) and OCI-LY19 (MyD88^WT) were grown in RPMI supplemented with 10% FCS. Cells were counted and plated at identical concentrations in triplicate wells of 96 well plates and decreasing concentrations of 4×4MyDI […], or Myr-4×4MyDI (19B), was added to the wells. After 48 h cell viability was tested using the Promega CellTiter viability assay according to the manufacturer's instructions. Percent inhibition was calculated as [(1-OD of well with inhibitor/OD of well without inhibitor)*1001. Negative values in A represent enhanced growth in the presence of the inhibitor.
Genomic DNA was prepared from the human lymphoma cell lines OCI-LY3 (MyD88^L265P) and OCI-LY19 (MyD88^WT) to confirm the presence of the activating L265P mutation in the OCI-Ly3 cells (and the WT sequence in the OCI-Ly19 cells). The MyD88 region was amplified using the forward and reverse primers GGGATATGCTGAACTAAGTTGCCAC (SEQ ID NO: 7) and GACGTGTCTGTGAAGTTGGCATCTC (SEQ ID NO: 8), respectively, as described in Xu, L. et al Blood (2013) 121(11): 2051-2058. The PCR product was sequenced to confirm the mutation.
The cell lines were incubated alone or with increasing concentrations of the 4×4MyDI. […]

Method for CaCO-2 monolayer: Transport studies are performed through the CaCO-2 monolayer (passage range of 52-60) seeded at density of 25×10^5 cells/cm^2 on untreated culture inserts of polycarbonate membrane with 0.4 μm pores and surface of 1.1 cm^2. The culture inserets containing Caco-2 monolayers were place in 24 transwell plates 12 mm, Costar™. The cells were monitored for their transepithelial electrical resistance (TEER) measurements to assure TEER between 300 and 500 Ω*cm^2. […] HBSS supplemented with 10 mM MES and adjusted to pH 6.5 will be used as transport medium in the donor compartment and pH 7.4 in the acceptor compartment. The donor solution contains the test compound.
The investigation of the permeability of 4×4MyDI through CaCO-2 monolayer includes using two main control groups, Atenolol and Metoprolol that show passive para-cellular and trans-cellular permeability, respectively. The CaCO-2 model allows investigating the mechanism of absorption, so the permeability from apical to basolateral membranes (AB) can be measured to evaluate the total permeability. The permeability from basolateral to apical membranes (BA) can also be measured and compared to AB P apparent (Papp) to determine if the absorption is though passive diffusion, active transporters or if there is involvement of efflux systems.

CC(C)C[C@@H]1NC(=O)[C@H](C(C)C)NC(=O)[C@H](CC(=O)O)NC(=O)[C@H](CCCNC(=N)N)NC(=O)CN(C(=O)[C@@H](N)Cc2c[nH]c3ccccc23)CCCCNC(=O)NCCCCN(CC(=O)NCC(=O)N[C@H](C(N)=O)[C@@H](C)O)C1=O [4×4MyDI] (H-W[Nlys]RDVL[Nlys]GT-NH2; linker 2-7 via CO; N-terminus assumed)
MyD88 inhibitory activity (reduction in TNFα production) [1]: intermediate activity | NFκB activation by IL-1β ([2]; HeLa cells, IL-1β): blocked | Percent p65 nuclear translocation, IL-1β ([2]; HeLa cells, IL-1β (MyD88 dependent)): 27% | NFκB activation by TNFα ([2]; HeLa cells, TNFα): not inhibited | Percent p65 nuclear translocation, TNFα ([2]; HeLa cells, TNFα (MyD88 independent)): 97% | Percent p65 nuclear translocation, No stimulation ([2]; HeLa cells, no stimulation): 0% | specificity of MyD88 inhibition ([2]; IL-1β versus TNFα): specific inhibitor | IFNγ produced by T cells responding to MOG35-55 [3]: complete inhibition | IL-17 produced by T cells responding to MOG35-55 [3]: complete inhibition | metabolised at 4 h ([4]; human, human plasma, over the following two hours (hours 2-4), read-out: decrease of amount in plasma): 20% | stability in plasma ([4]; plasma, 4×4MyDI: first two hours): completely stable | metabolised at 2 h [5]: 40% | proliferation of OCI-Ly3 cells [6]: specifically blocked proliferation | Papp AB (apical to basolateral) (CaCO-2 monolayer): higher than metoprolol

From US10662225B2, “Backbone cyclized inhibitory peptides of myeloid differentiation factor 88 (MyD88)” (Yissum Research Development Company of the Hebrew …, priority 2016, dated 2020)
